# According to US10954306B2 (priority 2015, dated 2021):
# Where no end group is shown, it is not given here.
# Assays:
# [1] = test system: antibody (polyclonal anti-T14); assay: ELISA motif determination with linear peptide variants; assay type: binding, rabbit; details: 100 nM peptide, FIGS. 5-10
# Experimental: The standard curves and the samples were run in triplicate. For the detection of T14, Pep4, T15 and amyloid, 8 nanomolar concentrations of each were used for the ELISA. On the other hand, for the motif determination experiment, only one concentration of each of the peptide variants was used of 100 nM. For the detection of T14 on rat brain samples, different dilutions of the protein were used. […] The standard curve for determination of T14 peptide in brain tissue and the brain tissue samples were diluted in PBS buffer. The standard curves ranged from 8 to 100 nM of T14. Briefly, 96-well immunoplates (NUNC) were coated with 100 μl/well of sample or standard T14, covered with parafilm and incubated overnight at 4° C. The following day the sample was removed by flicking the plate over a sink with running water, and 200 μl of the blocking solution containing 2% Bovine Serum Albumin (BSA) in Tris-Buffered Saline and Tween 20 (TBS-T) was added and incubated for 4 h at room temperature. Blocking solution was then removed and 100 μl of antibody, diluted in blocking solution to 1 μg/ml, was added and incubated overnight at 4° C. The primary antibody was removed the next day and wells were washed 3 times with 200 μl of TBS-T. After, 100 μl of secondary antibody diluted in blocking solution to […] was added and incubated for 2 h at room temperature; the plate was covered with parafilm during all incubations. After 2 h, the plate was washed 4 times with TBS-T. The addition of 3,3,5,5-tetramethylbenzidine started the colour reaction.
# The inventors investigate the immunospecificity of the antibody of the invention by carrying out binding experiments with a series of different linear peptides.
# [2] = T14 aggregation by WB and ELISA; assay type: physicochemical; details: 200 μM, neutralised PBS, 0-4 hours at 25° C.
# Experimental: Exogenous T14 stock solution (20 mM) solution was created by resuspension in distilled water. Subsequently, stock solution was diluted to a working stock solution (400 μM) with PBS (pH 10.5). Aggregation was initiated by neutralising the working stock solution by adding PBS (pH 5) to create a final concentration of 200 μM, which was incubated for 0, 1, 2, 3, 4 hours at 25° C. Moreover, T14 monomer control was created by diluting the working stock with PBS (pH 10.5) to 200 μM and incubating at 25° C. for 4 hours. A further no peptide control was created by mixing together pH 5 and pH 10.5 PBS and incubating at 25° C. for 4 hours. WB (A) and ELISA (B) were then conducted on the above T14 aggregation samples and quantified;
# rat brain slices = details: cited from earlier work
# α7 nicotinic-receptor = α7 nicotinic-receptor (Homo sapiens, UniProt P36544); details: cited from earlier work
# α7 nicotinic-receptor, sequence (P36544 23-502): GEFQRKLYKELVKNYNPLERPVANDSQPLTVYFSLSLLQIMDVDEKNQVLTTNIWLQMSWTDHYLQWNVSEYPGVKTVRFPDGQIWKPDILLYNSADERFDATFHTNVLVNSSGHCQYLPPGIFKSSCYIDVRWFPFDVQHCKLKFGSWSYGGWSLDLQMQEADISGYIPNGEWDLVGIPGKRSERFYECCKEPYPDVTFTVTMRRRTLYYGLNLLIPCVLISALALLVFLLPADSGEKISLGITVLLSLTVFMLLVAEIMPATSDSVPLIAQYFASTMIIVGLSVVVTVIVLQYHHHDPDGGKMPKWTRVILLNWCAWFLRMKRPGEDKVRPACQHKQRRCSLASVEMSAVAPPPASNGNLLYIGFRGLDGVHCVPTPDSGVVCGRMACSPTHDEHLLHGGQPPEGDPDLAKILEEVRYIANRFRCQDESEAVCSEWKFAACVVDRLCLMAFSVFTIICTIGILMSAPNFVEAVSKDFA
# [3] = test system: compensatory AChE release; details: cited from earlier work
substance,measurement,setting,value
HRWSSYMVHWK [Peptide 1107],recognition of the peptide by the antibody (ELISA),[1],strongly binds
FHRWSSYMVHWK [Peptide 1206],recognition of the peptide by the antibody (ELISA),[1],strongly binds
AEFHRWSSYMVHWK [Peptide T14],T14 aggregation,[2],grows exponentially
same,T14 monomer pool,[2],remains unchanged
same,recognition of the peptide by the antibody (ELISA),[1],strongly binds
NBP14 (AEFHRWSSYMVHWK; not fully specified),effect on Ca2+ concentrations,rat brain slices; given alone,no significant effect
same,effect on Ca2+ concentrations in presence of T30,rat brain slices; with T30,blocks the effects of T30
same,"protection of cells from linear T14, T30 and β-amyloid toxicity",α7 nicotinic-receptor,protect cells
same,compensatory AChE release induced by the toxicity of linear T14 and T30,[3],blocks
EFHRWSSYMVHWK [Peptide 1305],recognition of the peptide by the antibody (ELISA),[1],strongly binds
